The record followed here is ChEMBL document CHEMBL1128323, “Antifungal agents. 9. 3-Aryl-4-[alpha-(1H-imidazol-1-yl)arylmethyl]pyrroles: a new class of potent anti-Candida agents” (1995).

Holding throughout (type): functional
Assay [1] concerns Candida albicans. In words: Percent resistance against Candida albicans (40 clinical isolates) at 256 micro g/mL (pH=5.8), activity is expressed as R%.
The subject of assay [2] is Candida albicans. Description: Resistance against Candida. albicans (40 clinical isolates) at 256 ug/mL (pH=7.2), activity is expressed as R%.
Assay [3] concerns Candida albicans. Description: Inhibitory activity against Candida albicans (40 clinical isolates), determined at pH-5.8.
Assay [4] has as its system Candida albicans. In words: Inhibitory activity against Candida albicans (40 clinical isolates), determined at pH-7.2.
Assay [5] has as its system Candida. In words: Inhibitory activity against Candida. species. (40 clinical isolates), determined at pH-5.8.
Assay [6] concerns Candida. In words: Inhibitory activity against Candida. species (40 clinical isolates), determined at pH-5.8.
The test system of assay [7] is Candida. Description: 50% inhibitory activity against the Candida. species (40 clinical isolates) was determined at pH-7.2.
Assay [8] deals with Candida. Description: 90% inhibitory activity against the Candida. species (40 clinical isolates) was determined at pH-7.2.
Assay [9] relates to Candida. In words: The compound was tested for percent resistance against all Candida. species (40 clinical isolates) at 256 ug/mL (pH=7.2), activity is expressed as R%.
Assay [10] relates to Candida albicans. In words: Inhibitory activity against the Candida albicans (40 clinical isolates), determined at pH-5.8.
Assay [11] relates to Candida albicans. In words: Inhibitory activity against the Candida albicans (40 clinical isolates), determined at pH-7.2.
Assay [12] relates to Candida albicans. In words: 50% inhibitory activity against Candida albicans (40 clinical isolates) determined at pH-5.8.
The subject of assay [13] is Candida. Description: Inhibitory activity against the Candida. species. (40 clinical isolates) was determined at pH-7.2.
For assay [14], the system named is Candida. In words: The compound was tested for percent resistance against all Candida. species (40 clinical isolates) at 256 ug/mL (pH=5.8), activity is expressed as R%.
Assay [15] has as its system Candida albicans. Description: 50% inhibitory activity against Candida albicans (40 clinical isolates) determined at pH-7.2. To be noted: Candida albicans; read-out: MIC50.
In assay [16] the test system is Candida. In words: Inhibitory activity against Candida. species. (40 clinical isolates), determined at pH-7.2.
For assay [17], the system named is Candida. In words: 90% inhibitory activity against Candida. species (40 clinical isolates) determined at pH-7.2.
In assay [18] the test system is Candida. In words: Resistance against all Candida. species (40 clinical isolates) at 256 micro g/mL (pH=5.8). Activity is expressed as R%.
In assay [19] the test system is Candida. Description: Percent resistance against all Candida. species (40 clinical isolates) at 256 micro g/mL (pH=7.2), activity is expressed as R%.
For assay [20], the system named is Oryctolagus cuniculus. In words: Topical comparison with bifonazole in white male rabbits at 1% concentration of compound.
Assay [21] concerns Oryctolagus cuniculus. Description: Topical comparison with bifonazole in white male rabbits by treatment twice daily on 15 consecutive days starting 48 hr after inoculation.
Assay [22] relates to Candida albicans. In words: The compound was tested for percent resistance against Candida. albicans (40 clinical isolates) at 256 micro g/mL (pH=7.2), activity is expressed as R%.
The test system of assay [23] is Candida. In words: The compound was tested for percent resistance against all Candida. species (40 clinical isolates) at 256 micro g/mL (pH=5.8), activity is expressed as R%.

Values after ≈ are worked out from the molar mass of the structure shown. Values joined by “and” are separate entries in the source; they are usually repeats but may differ in a detail not shown here. Identical values can stand only once.

Regarding `c1ccc(-c2c[nH]cc2C(c2ccccc2)n2ccnc2)cc1` (stereo not given), the R turned out to be 0% in the assay with Candida albicans [1], 2.7% in the assay with Candida albicans [2], 75% with Candida [9] and 0% in the assay on Candida [14]. Besides, the MIC in the assay on Candida albicans [3] is 53.9 µg/mL (≈ 180 µM); with Candida albicans [4] it was above 35.4 µg/mL; against Candida [5], 88 µg/mL (≈ 294 µM); with Candida [13], above 396 µg/mL. Also, the MIC50 with Candida [6] was 128 µg/mL (≈ 428 µM); in the assay with Candida [7], above 256 µg/mL; in the assay on Candida albicans [12], 32 µg/mL (≈ 107 µM); in the assay on Candida albicans [15], 32 µg/mL (≈ 107 µM). For the same compound, the MIC90 against Candida [6] was 128 µg/mL (≈ 428 µM); against Candida [8] it was above 256 µg/mL; against Candida albicans [10], 128 µg/mL (≈ 428 µM); in the assay on Candida albicans [11], 64 µg/mL (≈ 214 µM).
On to `Clc1ccc(-c2c[nH]cc2C(c2ccccc2)n2ccnc2)cc1` (stereo not given), for which the R in the assay on Candida albicans [1], with Candida albicans [2], in the assay on Candida [18] and in the assay with Candida [19] was 0% throughout. The MIC against Candida albicans [3] stood at 12.8 µg/mL (≈ 38.3 µM); with Candida albicans [4] it was 6.4 µg/mL (≈ 19.2 µM); against Candida [5], 44.4 µg/mL (≈ 133 µM); against Candida [16] it was 46.5 µg/mL (≈ 139 µM). The MIC50 against Candida [6] worked out at 32 µg/mL (≈ 95.9 µM); against Candida [7], 32 µg/mL (≈ 95.9 µM); in the assay with Candida albicans [12], 16 µg/mL (≈ 47.9 µM); with Candida albicans [15] it was 2 µg/mL (≈ 5.99 µM). The MIC90 with Candida [6] was 32 µg/mL (≈ 95.9 µM); in the assay on Candida [17], 128 µg/mL (≈ 383 µM); in the assay on Candida albicans [10], 32 µg/mL (≈ 95.9 µM); against Candida albicans [11] it was 16 µg/mL (≈ 47.9 µM). For the same compound, in the assay with Oryctolagus cuniculus [20], the Percentage of animals is 50% and 83%. The same compound came in with a No. of animals in the assay with Oryctolagus cuniculus [21] of 33%.
Consider `CC(=O)N1CCN(c2ccc(OC[C@H]3CO[C@](Cn4ccnc4)(c4ccc(Cl)cc4Cl)O3)cc2)CC1` [KETOCONAZOLE], for which the R with Candida albicans [1], in the assay on Candida albicans [22] and in the assay with Candida [19] was 0% each time. In addition, the MIC against Candida albicans [3] stood at 8.6 µg/mL (≈ 16.2 µM); in the assay with Candida albicans [4], 8.3 µg/mL (≈ 15.6 µM); in the assay with Candida [5], 16.9 µg/mL (≈ 31.8 µM); in the assay on Candida [16], 8.1 µg/mL (≈ 15.2 µM). Besides, the MIC50 with Candida [6] came to 4 µg/mL (≈ 7.53 µM); in the assay on Candida [7], 4 µg/mL (≈ 7.53 µM); against Candida albicans [12], 0.5 µg/mL (≈ 0.941 µM); in the assay on Candida albicans [15], 2 µg/mL (≈ 3.76 µM). Further, the MIC90 against Candida [6], against Candida [8], against Candida albicans [10] and with Candida albicans [11] was 32 µg/mL (≈ 60.2 µM) throughout. In the assay on Candida [23], this compound displayed a Fungicidal of 0%.

For orientation: MIC means the least concentration at which growth counts as inhibited. The MIC50 is an inhibitory concentration at the 50% level, which refers to growth in some studies and to a panel of isolates in others. As a reminder, the MIC90 is the lowest concentration that inhibits either 90% of growth or 90% of the strains tested, depending on the study. A lower MIC90 goes with greater potency.
